Data: ChEMBL document CHEMBL1134191, “Pharmacophore-based discovery, synthesis, and biological evaluation of 4-phenyl-1-arylalkyl piperidines as dopamine transporter inhibitors” (Bioorg Med Chem Lett, 2001)

Key:
Rattus norvegicus [1] = species: Rattus norvegicus; assay: Inhibition of [3H]-dopamine uptake into striatal membrane preparations; type: functional, Striatum
Rattus norvegicus [2] = species: Rattus norvegicus; assay: Inhibition of [3H]dopamine uptake by striatal membrane preparations; type: functional, Striatum
Rattus norvegicus [3] = species: Rattus norvegicus; assay: Inhibitory concentration for [3H]-dopamine uptake by striatal membrane preparations in presence of 50 nM compound 43; type: functional; settings: Striatum
Rattus norvegicus [4] = species: Rattus norvegicus; assay: Inhibitory concentration for [3H]dopamine uptake by striatal membrane preparations in presence of 500 nM compound 5; type: functional; settings: Striatum
Rattus norvegicus [5] = species: Rattus norvegicus; assay: Inhibitory concentration for [3H]-dopamine uptake by striatal membrane preparations in presence of 1000 nM compound 5; type: functional; settings: Striatum
Rattus norvegicus [6] = species: Rattus norvegicus; assay: Inhibitory concentration for [3H]dopamine uptake by striatal membrane preparations in presence of 20 nM compound 43; type: functional; settings: Striatum

Clc1ccc(OCCN2CCC(c3ccc(Cl)cc3)CC2)cc1
Ki (Rattus norvegicus [1]): 90 nM

Fc1ccc(OCCN2CCC(c3ccccc3)CC2)cc1
Ki (Rattus norvegicus [1]): 2720 nM

Fc1ccc(OCCN2CCC(c3ccc(F)cc3)CC2)cc1
Ki (Rattus norvegicus [2]): 840 nM

Fc1ccc(CCN2CCC(c3ccc(F)cc3)CC2)cc1
Ki (Rattus norvegicus [1]): 1360 nM

Fc1ccc(CCCCN2CCC(c3ccc(F)cc3)CC2)cc1
Ki (Rattus norvegicus [1]): 2540 nM

OC1(c2ccccc2)CCN(CCOc2ccc(F)cc2)CC1
Ki (Rattus norvegicus [1]): 17600 nM

O=C(CCN1CCC(c2ccccc2)CC1)c1ccc(F)cc1
Ki (Rattus norvegicus [1]): 1560 nM

Fc1ccc(CN2CCC(c3ccc(F)cc3)CC2)cc1
Ki (Rattus norvegicus [1]): > 10000 nM

O=C(CCCN1CCC(c2ccc(F)cc2)CC1)c1ccc(F)cc1
Ki (Rattus norvegicus [1]): 3170 nM

O=C(CN1CCC(c2ccc(F)cc2)CC1)c1ccc(F)cc1
Ki (Rattus norvegicus [1]): 4330 nM

O=C(CCN1CCC(c2ccc(F)cc2)CC1)c1ccc(F)cc1
Ki (Rattus norvegicus [1]): 2670 nM

COC(=O)[C@H]1[C@@H](OC(=O)c2ccccc2)C[C@@H]2CC[C@H]1N2C [COCAINE]
IC50 (Rattus norvegicus [3]): 696 nM
IC50 (Rattus norvegicus [4]): 538 nM
IC50 (Rattus norvegicus [5]): 686 nM
IC50 (Rattus norvegicus [6]): 490 nM
